Activity calls are given as the source filed them. The rule behind the calls is not given here.
biological target: Oligo-1,6-glucosidase IMA1 (Saccharomyces cerevisiae S288c) (UniProt P53051); test: Ratio of acarbose IC50 to compound IC50 for bakers yeast alpha-glucosidase using p-nitrophenyl-alpha-D-glucopyranoside as substrate after 30 mins by spectrophotometry
Sequence (P53051 whole entry): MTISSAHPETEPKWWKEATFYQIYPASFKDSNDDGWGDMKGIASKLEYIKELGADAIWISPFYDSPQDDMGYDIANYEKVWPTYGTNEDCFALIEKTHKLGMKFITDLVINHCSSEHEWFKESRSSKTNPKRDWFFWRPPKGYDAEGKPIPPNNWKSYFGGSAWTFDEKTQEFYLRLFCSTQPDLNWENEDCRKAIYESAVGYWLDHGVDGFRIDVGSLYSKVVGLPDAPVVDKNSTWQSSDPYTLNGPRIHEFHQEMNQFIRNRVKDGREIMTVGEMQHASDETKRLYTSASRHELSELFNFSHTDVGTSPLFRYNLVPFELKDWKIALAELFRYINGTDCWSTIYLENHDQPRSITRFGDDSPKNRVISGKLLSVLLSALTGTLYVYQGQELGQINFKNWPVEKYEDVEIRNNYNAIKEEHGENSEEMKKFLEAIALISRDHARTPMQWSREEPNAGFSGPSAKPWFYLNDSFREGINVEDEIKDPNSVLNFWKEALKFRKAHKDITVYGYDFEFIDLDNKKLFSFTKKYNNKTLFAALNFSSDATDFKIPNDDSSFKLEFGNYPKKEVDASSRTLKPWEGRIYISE

Structure (SMILES)	Ratio IC50
O=C(O)CC1Oc2ccccc2-c2ccc3c(c21)C(=O)C(=O)N3Cc1ccc(C(F)(F)F)cc1 (configuration not stated)	20

biological target: Alpha-glucosidase MAL12 (Saccharomyces cerevisiae S288c, UniProt P53341); test: Inhibition of bakers yeast alpha-glucosidase using p-nitrophenyl-alpha-D-glucopyranoside as substrate after 30 mins by spectrophotometry
Sequence (P53341 whole entry): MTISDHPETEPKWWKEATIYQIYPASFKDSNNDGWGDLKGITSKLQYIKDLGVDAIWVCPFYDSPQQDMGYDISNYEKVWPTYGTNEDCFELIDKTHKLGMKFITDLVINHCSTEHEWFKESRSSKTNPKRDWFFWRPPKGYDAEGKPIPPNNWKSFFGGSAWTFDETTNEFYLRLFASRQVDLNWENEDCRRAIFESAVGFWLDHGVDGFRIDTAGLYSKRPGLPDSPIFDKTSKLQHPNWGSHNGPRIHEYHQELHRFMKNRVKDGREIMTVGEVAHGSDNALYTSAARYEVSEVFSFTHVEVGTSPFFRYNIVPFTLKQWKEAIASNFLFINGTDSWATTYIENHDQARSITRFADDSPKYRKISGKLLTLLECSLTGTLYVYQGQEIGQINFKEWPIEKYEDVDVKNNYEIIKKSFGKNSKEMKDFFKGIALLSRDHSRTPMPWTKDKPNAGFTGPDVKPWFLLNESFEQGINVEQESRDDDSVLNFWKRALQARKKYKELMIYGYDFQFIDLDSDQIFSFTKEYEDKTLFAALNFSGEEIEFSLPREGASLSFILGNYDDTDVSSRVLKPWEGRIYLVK

Structure (SMILES)	IC50
CN1C(=O)C(=O)c2c1ccc1c2C(CC(=O)O)Nc2ccccc2-1 (configuration not stated)	187 µM
COC(=O)CC1Oc2ccccc2-c2ccc3c(c21)C(=O)C(=O)N3C (configuration not stated)	105 µM
COC(=O)CC1Oc2ccccc2-c2ccc3c(c21)C(=O)C(=O)N3Cc1ccc(OC)cc1 (configuration not stated)	32.3 µM
COC(=O)CC1c2c(ccc3c2C(=O)C(=O)N3C)-c2ccccc2N1C(=O)c1ccc(OC)cc1 (configuration not stated)	111 µM
COC(=O)CC1c2c(ccc3c2C(=O)C(=O)N3C)-c2ccccc2N1C(=O)c1ccccc1 (configuration not stated)	150 µM
COC(=O)CC1Oc2ccccc2-c2cc(C)c3c(c21)C(=O)C(=O)N3Cc1ccccc1 (configuration not stated)	39.3 µM
COC(=O)CC1Oc2ccccc2-c2ccc3c(c21)C(=O)C(=O)N3Cc1ccccc1 (configuration not stated)	12.1 µM
COC(=O)CC1Nc2ccccc2-c2ccc3c(c21)C(=O)C(=O)N3Cc1ccc(OC)cc1 (configuration not stated)	45.3 µM
CN1C(=O)C(=O)c2c1ccc1c2C(CC(=O)O)Oc2ccccc2-1 (configuration not stated)	29 µM
COC(=O)CC1Oc2ccccc2-c2ccc3c(c21)C(=O)C(=O)N3Cc1ccc(C(F)(F)F)cc1 (configuration not stated)	15.7 µM
COC(=O)CC1c2c(ccc3c2C(=O)C(=O)N3C)-c2ccccc2N1C(C)=O (configuration not stated)	> 300 µM
O=C(O)CC1Oc2ccccc2-c2ccc3c(c21)C(=O)C(=O)N3Cc1ccccc1 (configuration not stated)	16 µM
COC(=O)CC1Nc2ccccc2-c2ccc3c(c21)C(=O)C(=O)N3C (configuration not stated)	287 µM
O=C(O)CC1Oc2ccccc2-c2ccc3c(c21)C(=O)C(=O)N3Cc1ccc(C(F)(F)F)cc1 (configuration not stated)	4.8 µM
COC(=O)CC1c2c(ccc3c2C(=O)C(=O)N3C)-c2ccccc2N1C(=O)c1ccc(Cl)cc1 (configuration not stated)	75.9 µM
COC(=O)CC1Oc2ccccc2-c2cc(C)c3c(c21)C(=O)C(=O)N3C (configuration not stated)	34.8 µM
COC(=O)CC1c2c(ccc3c2C(=O)C(=O)N3C)-c2ccccc2N1S(=O)(=O)c1ccccc1 (configuration not stated)	77.1 µM
COC(=O)CC1Nc2ccccc2-c2ccc3c(c21)C1(OCC(C)(C)CO1)C(=O)N3C (configuration not stated)	> 300 µM
COC(=O)CC1Nc2ccccc2-c2cc(C)c3c(c21)C(=O)C(=O)N3C (configuration not stated)	117 µM
COC(=O)CC1c2c(ccc3c2C(=O)C(=O)N3C)-c2ccccc2N1S(=O)(=O)c1ccc(F)cc1 (configuration not stated)	42.9 µM

biological target: Oligo-1,6-glucosidase IMA1 (Saccharomyces cerevisiae S288c) (UniProt P53051); test: Competitive inhibition of bakers yeast alpha-glucosidase using p-nitrophenyl-alpha-D-glucopyranoside as substrate at 0.5 to 5 uM after 30 mins by Lineweaver-Burk plot analysis

Structure (SMILES)	inhibition
O=C(O)CC1Oc2ccccc2-c2ccc3c(c21)C(=O)C(=O)N3Cc1ccc(C(F)(F)F)cc1 (configuration not stated)	Active
